Results as given in patent US8729134B2, “Aryl di-substituted propenone compounds” (Heartlink Limited, priority 2008, dated 2014).
Converted amounts (≈) assume the structure as drawn. “Also recorded” adds a separate entry of the source. Like-named read-outs stand apart in the source and are kept apart here.

Assays:
[1] = system: MCF-7 cells (human, mammary, adenocarcinoma cell line); experiment: MTT cell viability assay, MCF-7 cells; type: cell-based; conditions: MCF7, 48 hours incubation, read-out: IC50, inhibition of MCF7 cells
Method: (§1) Compounds II-IV were compared with genistein to test the cell viability of MCF-7 cells (human, mammary, adenocarcinoma cell line) and MDA-MB-435 cells (human mammary ductal carcinoma).
(§2) Cell viability was tested using the MTT assay (Amersham). The MTT [3-(4,5-dimethylthiazol-2-yl)-2,5-diphenyltetrazolium bromide] assay, was first described by Mosmann in 1983, (J Immunol Methods. 1983 Dec. 16; 65(1-2):55-63). The assay is based on the ability of a mitochondrial dehydrogenase enzyme from viable cells to cleave the tetrazolium rings of the pale yellow MTT and form a dark blue formazan crystals which is largely impermeable to cell membranes, thus resulting in accumulation within healthy cells. Solubilisation of the cells by the addition of a detergent results in the liberation of the crystals which are then solubilized. The number of surviving cells is directly proportional to the level of the formazan product created. The colour can then be quantified using a simple colorimetric assay. The results can be read on a multi-well scanning spectrophotometer (ELISA reader).
(§3) Cells were plated at predetermined densities in 96 well plates. These were then incubated for 24 hours at 37° C. with 5%; CO2. Growth medium was then removed and replaced with 100 μl of growth medium containing various dilutions of test reagents or appropriate controls.
(§4) Plates were then incubated for a either 48 or 96 hours.
(§5) MTT reagent was then added to each well. The plates were then incubated in a 37° C./5% CO2 incubator. Detergent reagent was then added to each well. The plates were incubated overnight at 37° C./5% CO2. The absorbance was read at 570 nm.

[2] = system: MDA-MB-435 cells (human mammary ductal carcinoma); experiment: MTT cell viability assay, MDA-MB-435 cells; type: cell-based; conditions: 48 hours incubation, read-out: IC50, inhibition of MDA-MB-435 cell line
Method: as §1, §2, §3, §4, §5

[3] = system: LNCaP cells (human prostate carcinoma); experiment: MTT cell viability assay, LNCaP cells; type: cell-based; conditions: 48 hours incubation
Method: as §2, §3, §4, §5
(§6) Compounds II-IV were compared with genistein to test the cell viability of LNCaP, PC3 and DU-145 cell lines (human prostate carcinoma).

[4] = system: PC3 cells (human prostate carcinoma); experiment: MTT cell viability assay, PC3 cells; type: cell-based; conditions: PC-3, read-out: IC 50, inhibition in PC3 cells
Method: as §2, §3, §4, §5, §6

[5] = system: DU-145 cells (human prostate carcinoma); experiment: MTT cell viability assay, DU-145 cells; type: cell-based; conditions: 48 hours incubation
Method: as §2, §3, §4, §5, §6

[6] = system: SK-OV-3 (ovarian adenocarcinoma) cells; experiment: MTT cell viability assay, SK-OV-3 cells; type: cell-based; conditions: Homo sapiens, read-out: IC 50, inhibition in SK-OV-3 cells
Method: as §2, §3, §4, §5
(§7) Also, Compounds II-IV were compared with genistein to test the cell viability of SK-OV-3 (ovarian adenocarcinoma), OVCAR-3 (ovarian adenocarcinoma), and C-33A (cervical carcinoma) cell lines.

[7] = system: OVCAR-3 (ovarian adenocarcinoma) cells; experiment: MTT cell viability assay, OVCAR-3 cells; type: cell-based; conditions: Homo sapiens, read-out: IC 50, inhibition in OVCAR-3 cells
Method: as §2, §3, §4, §5, §7

[8] = system: C-33A (cervical carcinoma) cells; experiment: MTT cell viability assay, C-33A cells; type: cell-based; conditions: Homo sapiens, 48 hours incubation, read-out: IC 50, inhibition of C-33A cells
Method: as §2, §3, §4, §5, §7

[9] = system: SK-MEL-28 (human malignant melanoma) cell line; experiment: MTT cell viability assay, SK-MEL-28 cells; type: cell-based; conditions: read-out: IC 50, inhibition in SK-MEL-28 cells
Method: as §2, §3, §4, §5
Compounds II, III and IV were compared with genistein to test the cell viability of SK-MEL-28 (human malignant melanoma) cell line.

[10] = system: human DU145 prostate tumour cells (xenograft); experiment: Anti-tumour efficacy in DU145 xenograft mouse model; type: in vivo, mice
Method: The cell lines were cultured and prepared for inoculation according to standard protocols.
(§8) Female athymic mice (54) were implanted subcutaneously in the right hind flank with human DU145 prostate tumour cells (5×10^6). Tumour formation and growth were monitored until the tumours reached an average 25 mm^2 area (5 mm×5 mm). Mice were randomised into groups based upon tumour area (mean tumour area in individual groups ranged from 22 mm^2-33 mm^2). Compositions of Compounds II and III were prepared in a solution of 5% DMSO, 10% Tween 80 in PBS and administered intraperitoneally in a volume of 100 μl at doses of 50, 25, and 10 mg/kg to individual eight week old female Balb/c mice for 14 days. Vehicle control was 5% DMSO, 10% Tween 80 in PBS.

[11] = Tolerability in the xenograft mouse model; type: in vivo; conditions: doses of 50, 25 and 10 mg/kg intraperitoneally for 14 days
Method: as §8

[12] = system: JAM (ovarian carcinoma) cells; experiment: MTT cell viability assay, JAM cells; type: cell-based; conditions: for IC50: Ovarian carcinoma cell, 96 hours incubation, read-out: IC 50, inhibition of JAM cells
Method: as §2, §3, §4, §5
Compound IV was compared with genistein to test the cell viability of JAM (ovarian carcinoma) and HELA (human cervical carcinoma) cell lines.

[13] = system: B16-F1 cells (murine melanoma); experiment: MTT cell viability assay, B16-F1 cells; type: cell-based; conditions: Mus musculus, 96 hours incubation, read-out: IC 50, inhibition of B16-F1 cells
Method: as §2, §3, §4
(§9) MTT reagent was then added to each well. The plates were then incubated in a 37° C./5% CO2 incubator. Detergent reagent was then added to each well. […] The absorbance was read at 570 nm. […]

[14] = system: AB1 cells (murine myeloma); experiment: MTT cell viability assay, AB1 cells; type: cell-based; conditions: Mus musculus, 96 hours incubation, read-out: IC 50, inhibition of AB1 cells
Method: as §2, §3, §4, §9

[15] = system: HELA (human cervical carcinoma) cells; experiment: MTT cell viability assay, HELA cells; type: cell-based; conditions: 96 hour incubation, read-out: IC 50, inhibition of HELA cells
Method: as §2, §3, §4, §9

[16] = read-out: IC 50, inhibition of LNCaP cells
[17] = read-out: IC 50, inhibition of DU-145 cells

IC50 [13] [µg/mL] | IC50 [14] [µg/mL] | IC50 [12] [µg/mL] | Compound | IC50 [1] [µM] | IC50 [2] [µM] | IC50 [3, 16] [µM] | IC50 [4] [µM] | IC50 [5, 17] [µM] | IC50 [6] [µM] | IC50 [7] [µM] | IC50 [8] [µM] | IC50 [9] [µM] | tolerability / toxicity in the animals [11] | further results
– | – | – | C=C(C(=O)c1ccc(OC)c(OC)c1OC)c1ccc(OC)cc1 [Compound II, 1-(2,3,4-trimethoxyphenyl)-2-(4-methoxyphenyl)prop-2-en-1-one] | 2.2 | 0.6 | 2.3 | 2.7 | 4.8 | 21.5 | 3.3 | 1.8 | 3.5 | better tolerated by the animals than Compound III; also recorded: neither compound resulted in unacceptable toxicity | reduction mean tumour growth relative to the control group ([10]; 10 mg/kg intraperitoneally for 14 days, at the completion of treatment): 42%; statistical significance of tumour growth inhibition ([10]; 25 mg/kg and 10 mg/kg treatment groups, t-test P<0.05): statistically significant; tumour growth relative to control animals treated with vehicle alone (in words) ([10]; 50, 25, 10 mg/kg intraperitoneally, 14 days): caused delay in the growth of DU-145 tumours; also recorded: clearly inhibited tumour growth; anti-tumour effect, comparison between Compounds II and III ([10]; DU145 xenograft, 50, 25, 10 mg/kg): has the most anti-tumour effect; also recorded: superior anti-tumour effect in comparison with Compound III; tumour size following the cessation of treatment ([10]; after the 14 day treatment, entire study period): tumours remained smaller
– | – | – | C=C(C(=O)c1cc(OC)c(OC)cc1OC)c1ccc(OC)c(OC)c1 [Compound III, 1-(2,4,5-trimethoxyphenyl)-2-(3,4-dimethoxyphenyl)prop-2-en-1-one] | 3 | 3.8 | 5 | 8.6 | 15 | 33.1 | 11.7 | 3.1 | 5.5 | neither compound resulted in unacceptable toxicity | –
1.6 (≈ 4.87 µM) | 1.1 (≈ 3.35 µM) | – | C=C(C(=O)c1ccc(OC)cc1OC)c1ccc(OC)c(OC)c1 [Compound IV, 1-(2,4-dimethoxyphenyl)-2-(3,4-dimethoxyphenyl)prop-2-en-1-one] | 6.8 | 6.8 | 6.1 | 8.7 | – | 27.4 | 16.9 | 2.4 | 3.5 | – | IC50 ([5]; read-out: IC 50, inhibition of DU-145 cells (unit inferred)): 10.7 µM; cytotoxic potency compared with genistein ([12]; JAM and HELA cell lines): more potent as a cytotoxic agent than genistein
– | – | 0.9 (≈ 2.84 µM) | COc1ccc(C(=O)Cc2ccc(OC)c(OC)c2)c(OC)c1 [Compound V, 1-(2,4-dimethoxyphenyl)-2-(3,4-dimethoxyphenyl)ethanone] | – | – | – | – | – | – | – | – | – | – | IC50 [15]: 3 µg/mL (≈ 9.48 µM)
4.5 (≈ 16.7 µM) | 1.1 (≈ 4.07 µM) | 9.7 (≈ 35.9 µM) | O=c1c(-c2ccc(O)cc2)coc2cc(O)cc(O)c12 [genistein, reference compound] | 79.4 | > 100 | – | – | 78.9 | – | – | 41.9 | – | – | IC50 ([3]; genistein, read-out: IC, inhibition of LNCaP cells): 59.5 µM
